# Source: article PMC5608556, “Photo-affinity labelling and biochemical analyses identify the target of trypanocidal simplified natural product analogues” (PLoS Neglected Tropical Diseases, 2017)
# Legend:
# [1] = biological target: T1, FoF1-ATP synthase F1 β-subunit (GFP-PTP tagged) (Trypanosoma brucei brucei, UniProt Q9GPE9); assay: In vivo photo-affinity labelling of GFP-PTP-tagged F1 β-subunit, Cy5.5 detection; format: binding; conditions: 50 μM, in vivo pulse-chase, UV 365 nm
# T1 construct: The endogenous expression produces tagged protein at physiological levels, allowing it to be trafficked and form complexes in the same way as untagged endogenously expressed protein; expressed in transfected cells; host or cells: procyclic-form T. brucei strain 29-13, stably transfected with BsmI-linearised pC-F1β-GFP-PTP (recombination into the endogenous gene)
# T1 sequence (Q9GPE9 22-519): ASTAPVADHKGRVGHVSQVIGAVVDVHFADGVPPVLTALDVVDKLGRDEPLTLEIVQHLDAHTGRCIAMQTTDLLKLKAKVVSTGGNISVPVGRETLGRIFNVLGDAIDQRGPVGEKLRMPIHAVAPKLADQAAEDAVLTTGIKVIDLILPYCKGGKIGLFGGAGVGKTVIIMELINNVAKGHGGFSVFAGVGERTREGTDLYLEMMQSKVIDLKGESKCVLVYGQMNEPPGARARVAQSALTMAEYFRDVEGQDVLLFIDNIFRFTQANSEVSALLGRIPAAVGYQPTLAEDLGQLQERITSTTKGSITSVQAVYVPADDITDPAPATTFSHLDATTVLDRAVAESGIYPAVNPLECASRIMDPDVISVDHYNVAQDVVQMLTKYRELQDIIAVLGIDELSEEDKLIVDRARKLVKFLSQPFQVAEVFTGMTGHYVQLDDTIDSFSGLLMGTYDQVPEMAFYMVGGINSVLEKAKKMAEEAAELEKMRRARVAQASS
# Protocol: (§1) Fig 7 B-THP-Ts bind to C-terminal GFP-PTP tagged F1 α- and β- subunits. (A) Stably transfected PF T. brucei cells endogenously-expressing F1 α-GFP-PTP or F1 β-GFP-PTP were loaded with MitoTracker Red CMXros (red) and DAPI (blue) and imaged microscopically to determine localisation of GFP-PTP-tagged protein. […] (B) Following in vivo photo-affinity labelling with 50 μM compound 3 or compound 1 (negative control), GFP-PTP-tagged F1 α- and β-subunits were affinity purified and Cy5.5 clicked on. Proteins were separated by SDS-PAGE and a western blot was performed with mouse anti-GFP / anti-mouse-DyLight 800. […]
# (§2) Pulse-chase in vivo photo-affinity labelling with bi-functional compound 3 (and lead compound 1 as negative control) was performed on cells from both cell lines expressing GFP-PTP-tagged F1 α- or β-subunits. Tagged subunits were immobilised on IgG-sepharose beads, purified, and Cy5.5 fluorescent reporter clicked on, and proteins were detected by western blotting (Fig 7B). […] In trypanosomatids (but not in other organisms) the native α-subunit is expressed as a 63 KDa protein which is then cleaved by an unknown protease to 20 KDa N-terminal and 43 KDa C-terminal domains, both of which remain associated with the FoF1-ATP synthase complex. […]
# [2] = biological target: T2, FoF1-ATP synthase F1 α-subunit (GFP-PTP tagged) (Trypanosoma brucei brucei, UniProt Q9GS23); assay: In vivo photo-affinity labelling of GFP-PTP-tagged F1 α-subunit, Cy5.5 detection; format: binding; conditions: 50 μM, in vivo pulse-chase, UV 365 nm
# T2 construct: expressed in transfected cells; host or cells: procyclic-form T. brucei strain 29-13, stably transfected with MfeI-linearised pC-F1α-GFP-PTP (recombination into the endogenous gene)
# T2 sequence (Q9GS23 160-584): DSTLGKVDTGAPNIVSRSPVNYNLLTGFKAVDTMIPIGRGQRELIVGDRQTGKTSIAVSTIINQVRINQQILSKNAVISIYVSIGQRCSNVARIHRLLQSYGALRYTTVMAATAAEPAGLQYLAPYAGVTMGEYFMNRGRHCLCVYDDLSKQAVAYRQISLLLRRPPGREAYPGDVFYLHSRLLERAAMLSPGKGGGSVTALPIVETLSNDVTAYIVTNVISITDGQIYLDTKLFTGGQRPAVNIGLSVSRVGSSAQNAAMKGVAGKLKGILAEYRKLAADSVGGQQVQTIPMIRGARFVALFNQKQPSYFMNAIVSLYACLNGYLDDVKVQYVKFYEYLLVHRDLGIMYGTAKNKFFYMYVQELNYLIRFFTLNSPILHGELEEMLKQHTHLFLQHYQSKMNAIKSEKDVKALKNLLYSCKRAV
# Protocol: as §1, §2
smiles,measurement,setting,value
C#CCNC(=O)CCC[C@H]1CC2(C[C@@H](Cn3cc([C@@H]4CCC[C@H](CCCCOCc5ccccc5)O4)nn3)O1)N=N2 [Compound 3],UV-conjugation (Cy5.5 labelling at 700 nm) to F1 β-GFP-PTP,[1],can UV-conjugate
same,UV-conjugation (Cy5.5 labelling at 700 nm) to F1 α-GFP-PTP,[2],can UV-conjugate
